As usually defined, the IC50 is the concentration that gives 50% inhibition. As usually defined, the EC50 is the midpoint of the concentration-response curve.

The source made the active and inactive calls. Cut-off read from the data, not from the text of the source, for most assays here: actives have a measured EC50 and inactives only a lower limit.

Test [1] in a line: Counterscreen for AddAB inhibitors: absorbance-based bacterial cell-based high throughput dose response assay for inhibitors of bacterial viability. [Related pubchem assays (depositor defined):AID435030, AID449728, AID449731, AID488942, AID488955, AID488956]. The format is functional. A general note: Counterscreens check selectivity or assay interference.
Test [2] concerns the target T1, Serine/threonine-protein phosphatase (Candida dubliniensis (strain CD36 / CBS 7987 / NCPF 3949 / NRRLY-17841) (Yeast), UniProt B9W6M3).
T1 sequence (B9W6M3 whole entry): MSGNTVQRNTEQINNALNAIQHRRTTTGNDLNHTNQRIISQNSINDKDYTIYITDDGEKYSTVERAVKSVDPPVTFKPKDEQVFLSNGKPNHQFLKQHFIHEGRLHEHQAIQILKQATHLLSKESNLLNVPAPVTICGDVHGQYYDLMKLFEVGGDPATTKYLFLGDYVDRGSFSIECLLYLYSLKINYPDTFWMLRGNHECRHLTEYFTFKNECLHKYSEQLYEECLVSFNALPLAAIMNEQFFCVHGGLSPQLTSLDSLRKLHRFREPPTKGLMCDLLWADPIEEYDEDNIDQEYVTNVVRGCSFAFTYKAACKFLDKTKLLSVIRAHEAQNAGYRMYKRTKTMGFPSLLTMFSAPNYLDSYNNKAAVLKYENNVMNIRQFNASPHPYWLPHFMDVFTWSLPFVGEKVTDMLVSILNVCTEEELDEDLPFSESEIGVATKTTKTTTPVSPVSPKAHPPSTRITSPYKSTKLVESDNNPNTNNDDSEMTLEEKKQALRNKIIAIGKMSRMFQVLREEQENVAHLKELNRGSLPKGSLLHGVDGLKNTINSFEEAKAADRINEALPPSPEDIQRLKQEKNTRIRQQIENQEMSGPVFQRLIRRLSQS
In words: blockers of CaCl2-induced CDRE-lacZ signaling – S. cerevisiae, luminescence, secondary, dose response (AID 2388).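 Note: yeast reporter cells carrying a calcineurin-responsive lacZ construct stimulated with calcium chloride; luminescent beta-galactosidase reporter signal in whole cells rather than isolated phosphatase activity; potency for inhibition where a drop in reporter signal means calcineurin blockade.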 Format: functional, cell-based.

Test [3] in a line: fluconazole-exposed Candida albicans growth modulators – fluorescence, retest, confirmation (AID 2467). The format is functional, cell-based.
The target of test [4] is ATP-dependent molecular chaperone HSP82 (Candida albicans (strain WO-1) (Yeast), UniProt C4YTQ8). Nature of the test: steroid-induced GRE reporter decrease in yeast – S. cerevisiae, luminescence, Hsp90 inhibitor project, dose response (AID 2400).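 Note: beta-galactosidase luminescence from glucocorticoid response element reporter as proxy for Hsp90 function; inhibitor potency where signal loss means Hsp90 inhibition.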 Format: functional, cell-based.
Test [5] is described as follows: NIH-3T3 fibroblast cytotoxicity, dose response, cytotoxicity control, cell-based, fluorescence, Alamar Blue, secondary assay (AID 2327).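 Note: NIH-3T3 mouse fibroblasts cultured with fluconazole at 8 µg/mL.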 The format is functional. Background: The colour change of resazurin is a common sign of viable cells or microbes.

Sequence of ATP-dependent molecular chaperone HSP82 (C4YTQ8 whole entry): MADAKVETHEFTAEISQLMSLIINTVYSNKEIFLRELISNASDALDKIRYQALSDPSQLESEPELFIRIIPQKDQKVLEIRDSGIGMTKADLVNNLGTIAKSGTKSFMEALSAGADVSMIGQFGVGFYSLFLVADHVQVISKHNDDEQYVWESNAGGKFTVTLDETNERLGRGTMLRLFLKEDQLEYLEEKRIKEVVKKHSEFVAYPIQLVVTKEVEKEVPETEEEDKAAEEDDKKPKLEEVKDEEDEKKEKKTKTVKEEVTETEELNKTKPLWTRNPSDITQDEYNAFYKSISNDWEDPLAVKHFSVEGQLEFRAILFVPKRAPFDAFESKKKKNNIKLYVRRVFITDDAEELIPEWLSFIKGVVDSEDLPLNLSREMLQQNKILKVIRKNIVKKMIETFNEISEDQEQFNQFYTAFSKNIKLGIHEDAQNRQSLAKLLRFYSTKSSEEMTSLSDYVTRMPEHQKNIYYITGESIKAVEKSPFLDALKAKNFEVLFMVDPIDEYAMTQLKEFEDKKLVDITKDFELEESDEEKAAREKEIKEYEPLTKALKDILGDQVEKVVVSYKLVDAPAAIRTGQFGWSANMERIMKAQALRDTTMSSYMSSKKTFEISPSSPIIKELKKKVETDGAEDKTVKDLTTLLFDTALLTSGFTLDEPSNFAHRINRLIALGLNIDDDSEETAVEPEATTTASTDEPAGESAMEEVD

For the compound `CCCCC(=O)NC(c1ccco1)c1cc(Cl)c2cccnc2c1O` (stereo not given), the IC50 in test [1] is > 119 µM (inactive). Besides, the EC50 in test [2] is > 180 µM (inactive); in test [3], 0.537 µM (active); in test [4], > 160 µM (inactive); in test [5] it was 25 µM (active).

In the case of `CCCCC(=O)NC(c1ccc(Cl)cc1)c1ccc2cccnc2c1O` (stereo not given), in test [1], the IC50 was > 119 µM (inactive). Besides, the EC50 in test [2] is 24.8 µM (active); in test [3], 0.413 µM (active); in test [4], 29.1 µM (active); in test [5], 16.6 µM (active).

Consider `O=C(N/N=C/c1ccccc1O)/C(O)=C\C1=NC2(CCCC2)Cc2ccccc21`, for which the IC50 in test [1] was > 119 µM (inactive). The EC50 in test [2] was > 180 µM (inactive); in test [3], 0.663 µM (active); in test [4], 22.1 µM (active); in test [5] it was 10.5 µM (active).

For the origin of these results see ChEMBL document CHEMBL1201862, “PubChem BioAssay data set” (2004).
